# Test results taken from patent US20240139185A1, “COMPOUNDS THAT PARTICIPATE IN COOPERATIVE BINDING AND USES THEREOF” (Revolution Medicines, Inc., priority 2018, published 2024).
# Assays:
# [1] = target: T1, BRAF-GTP-KRAS-G12C complex (Homo sapiens, UniProt P01116+P62937, G12C); assay: KRAS-BRAF complex disruption through competition with CYPA-compound by TR-FRET; conditions: biochemical BRAF-KRAS G12C-GTP disruption assay EC50, with CYPA
# T1 construct: 50 nM of His6-KRas G12C-GTP (1-169); 500 nM of tagless CypA (1-165)
# Procedure, shortened: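 His6-KRAS G12C-GTP (1-169, 50 nM) with tagless CypA (1-165, 500 nM) was incubated with compound for 3 h at room temperature in pH 7.3 Hepes/NaCl/MgCl2 buffer containing GST-BRAF RBD. Anti-His Eu (10 nM) and anti-GST APC (50 nM) were then added for 1.5 h, and the 665/615 nm TR-FRET ratio was read. EC50 from 4-parameter fit; for specificity, wild-type KRAS replaced G12C, and CypA was omitted to test presenter dependence.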
# [2] = target: cyclophilin A (CYPA) (Homo sapiens, UniProt P62937); assay: CYPA-compound binary complex formation by SPR; conditions: read-out: CYPA Binding Affinity
# Procedure, shortened: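 CypA-Avi captured on a Biotin CAPture chip (4 μg/ml), reference flow cell subtracted. Compounds injected as 10-point 2-fold dilutions from 50 μM in HBS-P+ pH7.4 with 2% DMSO; 60 s association and 60 s dissociation, solvent-corrected. Affinity obtained by steady-state fitting.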
# [3] = system: pERK in H358 cells; assay: pERK inhibition in H358 cells; format: cell-based, human; conditions: 4 hours treatment, read-out: Cellular pERK inhibition
# Procedure, shortened: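 Human lung cancer H358 cells in RPMI/10% FBS were exposed to compound or DMSO for 4 h. Fixed and permeabilized cells were stained overnight at 4 C with anti-phospho-ERK1/2 (Thr202/Tyr204). Near-infrared imaging read the pERK signal at 800 nm, with DRAQ5 at 700 nm.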
Structure (SMILES),EC50 [1],Kd [2],IC50 [3]
CC#CC(=O)N1CC(C(=O)N(C)[C@H](C(=O)N[C@H]2Cc3cc(O)cc(c3)-c3ccc4c(c3)n(c(=O)n4C)CC(C)(C)COC(=O)[C@@H]3CCCN(N3)C2=O)C(C)C)C1 [Compound 190],0.5 to 5 µM,≤ 5 µM,> 10 µM
C=CC(=O)N1CCN(C(=O)N(C)[C@H](C(=O)N[C@H]2Cc3cc(O)cc(c3)-c3ccc4c(C(C)(C)C#N)cn(c4c3)CC(C)(C)COC(=O)[C@@H]3CCCN(N3)C2=O)C(C)C)CC1 [Compound 344],0.5 to 5 µM,5 to 15 µM,1 to 10 µM
CC(C)[C@@H](C(=O)N[C@H]1Cc2cc(O)cc(n2)-c2ccc3c(C(C)(C)C#N)cn(c3c2)C[C@H](C)CNC(=O)[C@@H]2CCCN(N2)C1=O)N(C)C(=O)C1CN(C(=O)CCl)C1 [Compound 60],> 5 µM,5 to 15 µM,> 10 µM
C=CC(=O)N1CCC(C(=O)N(C)C(C(=O)NC2Cc3cc(O)cc(c3)-c3ccc4cc(-c5ccccc5COC)n(c4c3)CC(C)(C)COC(=O)C3CCCN(N3)C2=O)C(C)C)C1 (stereo not drawn) [Compound 90],0.5 to 5 µM,5 to 15 µM,≤ 1 µM
C=CC(=O)N1CCC(C(=O)N(C)C(C(=O)NC2Cc3cc(O)cc(c3)-c3ccc4c(c3)c(cn4-c3cc(COC)ccc3C#N)CC(C)(C)COC(=O)C3CCCN(N3)C2=O)C(C)C)C1 (stereo not drawn) [Compound 393],0.5 to 5 µM,5 to 15 µM,1 to 10 µM
CC(C)[C@@H](C(=O)N[C@H]1Cc2cc(O)cc(c2)-c2cc3c(ccn3CC(C)(C)COC(=O)[C@@H]3CCCN(N3)C1=O)cn2)N(C)C(=O)C1CN(C(=O)CCl)C1 [Compound 178],0.5 to 5 µM,5 to 15 µM,> 10 µM
CCN1CCC(=O)N2C[C@H](C)COC(=O)[C@@H]3CCCN(N3)C(=O)[C@@H](NC(=O)[C@H](C(C)C)N(C)C(=O)C3CN(C(=O)CCl)C3)Cc3cc(O)cc(c3)-c3ccc1c2c3 [Compound 186],> 5 µM,5 to 15 µM,> 10 µM
C#CCOCc1cc2ccc3cc2n1C[C@H](C)COC(=O)[C@@H]1CCCN(N1)C(=O)[C@@H](NC(=O)[C@H](C(C)C)N(C)C(=O)C1CN(C(=O)CCl)C1)Cc1cc(O)cc-3c1 [Compound 91],0.5 to 5 µM,5 to 15 µM,1 to 10 µM
C=CC(=O)N1CCC(C(=O)N(C)C(C(=O)NC2Cc3cc(O)cc(c3)-c3ccc4c(c3)c(cn4C(C)(C)C#N)CC(C)(C)COC(=O)C3CCCN(N3)C2=O)C2CCCC2)C1 (stereo not drawn) [Compound 395],0.5 to 5 µM,≤ 5 µM,≤ 1 µM
"CC(C)[C@@H](C(=O)N[C@H]1Cc2cc(O)cc(c2)-c2ccc3c(C(C)(C)C#N)cn(c3c2)CC(CO)COC(=O)[C@@H]2CCCN(N2)C1=O)N(C)C(=O)C1CN(C(=O)CCl)C1 (single isomer, unassigned) [Compound 21]",0.5 to 5 µM,> 15 µM,> 10 µM
C=CC(=O)N1CCC(C(=O)N(C)C(C(=O)NC2Cc3cc(O)cc(c3)-c3ccc4c(c3)c(c(C#N)n4CCOC)CC(C)(C)COC(=O)C3CCCN(N3)C2=O)C(C)C)C1 (stereo not drawn) [Compound 400],≤ 0.5 µM,5 to 15 µM,1 to 10 µM
CC(C)[C@@H](C(=O)N[C@H]1Cc2cc(O)cc(c2)-c2ccc3c(C4CCC4)cn(c3c2)C[C@H](C)COC(=O)[C@@H]2CCCN(N2)C1=O)N(C)C(=O)C1CN(C(=O)CCl)C1 [Compound 118],≤ 0.5 µM,> 15 µM,1 to 10 µM
C=CC(=O)N1CCC(C(=O)N(C)C(C(=O)NC2Cc3cc(O)cc(c3)-c3ccc4c(c3)N(CC(C)(C)COC(=O)C3CCCN(N3)C2=O)CC4(C)COC)C2CCCC2)C1 (stereo not drawn) [Compound 398],0.5 to 5 µM,≤ 5 µM,≤ 1 µM
CC(C)C(C(=O)NC1Cc2cc(O)cc(c2)-c2ccc3c(C(C)(C)C#N)cn(c3c2)CC(CF)COC(=O)C2CCCN(N2)C1=O)N(C)C(=O)C1CN(C(=O)CCl)C1 (mixture of isomers) [Compound 34],≤ 0.5 µM,5 to 15 µM,1 to 10 µM

# Next, values leading:
EC50 [1],Kd [2],IC50 [3],Structure (SMILES)
≤ 0.5 µM,≤ 5 µM,1 to 10 µM,CON=C(C)c1cn2c3cc(ccc13)-c1cc(O)cc(c1)CC(NC(=O)C(C(C)C)N(C)C(=O)C1CN(C(=O)CCl)C1)C(=O)N1CCCC(N1)C(=O)OCC(C)C2 (stereo not drawn) [Compound 73]
≤ 0.5 µM,≤ 5 µM,> 10 µM,CNC(=O)c1cc2ccc3cc2n1CC(C)COC(=O)C1CCCN(N1)C(=O)C(NC(=O)C(C(C)C)N(C)C(=O)C1CN(C(=O)CCl)C1)Cc1cc(O)cc-3c1 (stereo not drawn) [Compound 115]
≤ 0.5 µM,5 to 15 µM,1 to 10 µM,CC(C)[C@@H](C(=O)N[C@H]1Cc2cc(O)cc(c2)-c2ccc3c(C#N)cn(c3n2)CC(C)(C)COC(=O)[C@@H]2CCCN(N2)C1=O)N(C)C(=O)C1CN(C(=O)CCl)C1 [Compound 176]
≤ 0.5 µM,> 15 µM,> 10 µM,CC(C)C(C(=O)NC1Cc2cc(O)cc(c2)-c2ccc3c(C(=O)N(C)C)cn(c3c2)CC(C)(C)COC(=O)C2CCCN(N2)C1=O)N(C)C(=O)C1CN(C(=O)CCl)C1 (stereo not drawn) [Compound 109]
≤ 0.5 µM,5 to 15 µM,1 to 10 µM,CC(C)[C@@H](C(=O)N[C@H]1Cc2cc(O)cc(c2)-c2ccc3c(-c4ccn(C)n4)cn(c3c2)CC(C)(C)COC(=O)[C@@H]2CCCN(N2)C1=O)N(C)C(=O)C1CN(C(=O)CCl)C1 [Compound 257]
≤ 0.5 µM,> 15 µM,> 10 µM,C=CC(=O)N1CCN([C@H](C(=O)N[C@H]2Cc3cc(O)cc(c3)-c3ccc4c(Cl)nn(c4c3)CC(C)(C)COC(=O)[C@@H]3CCCN(N3)C2=O)C(C)C)C1=O [Compound 200]
≤ 0.5 µM,5 to 15 µM,> 10 µM,CC(C)[C@@H](C(=O)N[C@H]1Cc2cc(O)cc(c2)-c2ccc3c(C(C)(C)C#N)cn(c3c2)CC(CC#N)COC(=O)[C@@H]2CCCN(N2)C1=O)N(C)C(=O)C1CN(C(=O)CCl)C1 (stereo partly drawn) [Compound 39]
≤ 0.5 µM,≤ 5 µM,≤ 1 µM,CC(C)[C@@H](C(=O)N[C@H]1Cc2cc(O)cc(c2)-c2ccc3c(C(C)(C)C#N)c(C#N)n(c3c2)C[C@H](C)COC(=O)[C@@H]2CCCN(N2)C1=O)N(C)C(=O)C1CN(C(=O)CCl)C1 [Compound 85]
≤ 0.5 µM,5 to 15 µM,> 10 µM,CC(C)[C@@H](C(=O)N[C@H]1Cc2cc(O)cc(c2)-c2ccc3c(S(C)(=O)=O)cn(c3c2)CCCOC(=O)[C@@H]2CCCN(N2)C1=O)N(C)C(=O)C1CN(C(=O)CCl)C1 [Compound 102]
≤ 0.5 µM,5 to 15 µM,1 to 10 µM,Cc1c(C#N)c2ccc3cc2n1CC(C)(C)COC(=O)[C@@H]1CCCN(N1)C(=O)[C@@H](NC(=O)[C@H](C(C)C)N(C)C(=O)C1CN(C(=O)CCl)C1)Cc1cc(O)cc-3c1 [Compound 106]
≤ 0.5 µM,> 15 µM,1 to 10 µM,CN(C(=O)C1CN(C(=O)CCl)C1)[C@@H](CC1CC1)C(=O)N[C@H]1Cc2cc(O)cc(c2)-c2ccc3c(C(C)(C)C#N)cn(c3c2)CC(C)(C)COC(=O)[C@@H]2CCCN(N2)C1=O [Compound 57]
≤ 0.5 µM,> 15 µM,≤ 1 µM,CC(C)[C@@H](C(=O)N[C@H]1Cc2cc(O)cc(c2)-c2ccc3c(Cl)nn(c3c2)CC(C)(C)COC(=O)[C@@H]2CCCN(N2)C1=O)N(C)C(=O)C1CN(C(=O)CCl)C1 [Compound 201]
≤ 0.5 µM,5 to 15 µM,> 10 µM,CNC(=O)c1cn2c3cc(ccc13)-c1cc(O)cc(c1)C[C@H](NC(=O)[C@H](C(C)C)N(C)C(=O)C1CN(C(=O)CCl)C1)C(=O)N1CCC[C@H](N1)C(=O)OCC(C)(C)C2 [Compound 108]
≤ 0.5 µM,5 to 15 µM,> 10 µM,COCc1nc2ccc3cc2n1CC(C)(C)COC(=O)[C@@H]1CCCN(N1)C(=O)[C@@H](NC(=O)[C@H](C(C)C)N(C)C(=O)C1CN(C(=O)CCl)C1)Cc1cc(O)cc-3c1 [Compound 143]
≤ 0.5 µM,5 to 15 µM,> 10 µM,"CC1COC(=O)[C@@H]2CCCN(N2)C(=O)[C@@H](NC(=O)[C@H](C(C)C)N(C)C(=O)C2CN(C(=O)CCl)C2)Cc2cc(O)cc(c2)-c2ccc3c(S(C)(=O)=O)cn(c3c2)C1 (single isomer, unassigned) [Compound 111]"
≤ 0.5 µM,5 to 15 µM,> 10 µM,CC(C)[C@@H](C(=O)N[C@H]1Cc2cc(O)cc(c2)-c2ccc3nnn(c3c2)CC(C)(C)COC(=O)[C@@H]2CCCN(N2)C1=O)N(C)C(=O)C1CN(C(=O)CCl)C1 [Compound 175]
≤ 0.5 µM,5 to 15 µM,> 10 µM,CC(C)[C@@H](C(=O)N[C@H]1Cc2cc(O)cc(c2)-c2ccc3ncn(c3c2)CC(C)(C)COC(=O)[C@@H]2CCCN(N2)C1=O)N(C)C(=O)C1CN(C(=O)CCl)C1 [Compound 139]
≤ 0.5 µM,≤ 5 µM,1 to 10 µM,CC(C)[C@@H](C(=O)N[C@H]1Cc2cc(O)cc(c2)-c2ccc3c(C(F)F)nn(c3c2)C[C@H](C)COC(=O)[C@@H]2CCCN(N2)C1=O)N(C)C(=O)C1CN(C(=O)CCl)C1 [Compound 202]
